What all share (format): biochemical
Experiment [1] deals with JAK2 (Homo sapiens, UniProt O60674). As to the kind of experiment: JAK kinase activity, homogeneous time-resolved fluorescence (JAK2 reaction system). The following applies: ATP 2 μM, JAK2 protein 0.01 ng/μL. Summed up:
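IC50 derived by Hill-equation fit of the 665/615 nm time-resolved fluorescence ratio after EDTA-containing detection mix with anti-phosphosubstrate antibody. Preceding 1 h reaction contained 2 μM ATP, 0.01 ng/μL JAK2, substrate, 50 mM Hepes pH 7.0, 5 mM MgCl2, 1 mM DTT.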

The target of experiment [2] is JAK1 (Homo sapiens, UniProt P23458). As to the kind of experiment: JAK kinase activity, homogeneous time-resolved fluorescence (JAK1 reaction system). The following applies: ATP 2 μM, JAK1 protein 0.2 ng/μL; read-out: JAK 1 activity. Summed up:
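Kinase activity read as the 665 nm/615 nm time-resolved fluorescence ratio (320 nm excitation) after EDTA-containing antibody and XL-615 addition. Reaction ran 1 h at pH 7.0 (Hepes, MgCl2, DTT) with 0.2 ng/μL JAK1 and ATP at 2 μM. IC50 derived by Hill-slope fit.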

For experiment [3], the target named is TYK2 (Homo sapiens, UniProt P29597). Kind of experiment: JAK kinase activity, homogeneous time-resolved fluorescence (TYK2 reaction system). The following applies: ATP 2 μM, TYK2 protein 0.2 ng/μL; read-out: TYK 2 activity. Summed up: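 Activity read as the 665 nm/615 nm ratio after adding EDTA-containing detection mix with anti-phospho-substrate antibody and XL-615. Beforehand, 0.2 ng/μL TYK2, 2 μM ATP, substrate and compound reacted 1 h in pH 7.0 Hepes buffer with MgCl2 and DTT. IC50 fitted with Hill-slope equation.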

The target in experiment [4] is T1, JAK3 (Homo sapiens, UniProt P52333).
T1 sequence (P52333 1-1124): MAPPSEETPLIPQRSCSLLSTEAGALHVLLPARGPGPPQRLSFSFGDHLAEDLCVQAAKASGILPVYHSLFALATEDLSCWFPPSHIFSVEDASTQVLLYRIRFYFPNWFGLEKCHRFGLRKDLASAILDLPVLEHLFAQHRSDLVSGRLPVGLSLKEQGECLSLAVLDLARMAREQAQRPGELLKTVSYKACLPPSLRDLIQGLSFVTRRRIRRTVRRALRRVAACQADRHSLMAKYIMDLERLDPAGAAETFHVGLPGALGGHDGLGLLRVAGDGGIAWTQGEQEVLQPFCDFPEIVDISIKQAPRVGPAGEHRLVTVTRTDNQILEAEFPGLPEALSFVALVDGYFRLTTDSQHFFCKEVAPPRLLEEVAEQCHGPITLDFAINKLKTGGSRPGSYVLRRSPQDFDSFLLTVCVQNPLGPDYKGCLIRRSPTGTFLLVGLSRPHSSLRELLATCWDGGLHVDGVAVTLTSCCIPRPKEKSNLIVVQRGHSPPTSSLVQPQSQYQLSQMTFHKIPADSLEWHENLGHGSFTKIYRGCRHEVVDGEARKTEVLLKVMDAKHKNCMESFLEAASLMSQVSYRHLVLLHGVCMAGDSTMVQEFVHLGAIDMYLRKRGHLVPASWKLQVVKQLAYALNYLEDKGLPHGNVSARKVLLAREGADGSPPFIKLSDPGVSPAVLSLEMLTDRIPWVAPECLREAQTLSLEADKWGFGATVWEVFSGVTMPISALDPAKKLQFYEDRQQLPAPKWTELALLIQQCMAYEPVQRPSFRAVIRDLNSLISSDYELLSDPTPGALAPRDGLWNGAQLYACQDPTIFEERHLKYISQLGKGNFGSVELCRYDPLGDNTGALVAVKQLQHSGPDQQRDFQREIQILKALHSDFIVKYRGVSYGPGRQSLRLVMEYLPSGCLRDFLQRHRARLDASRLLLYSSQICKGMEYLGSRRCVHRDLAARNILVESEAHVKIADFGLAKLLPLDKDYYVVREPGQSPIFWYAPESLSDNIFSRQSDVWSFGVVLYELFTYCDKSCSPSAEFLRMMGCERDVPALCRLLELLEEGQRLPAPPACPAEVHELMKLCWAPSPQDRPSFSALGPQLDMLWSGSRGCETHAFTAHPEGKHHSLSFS
As to the kind of experiment: JAK kinase activity, homogeneous time-resolved fluorescence (JAK3 reaction system). The following applies: ATP 2 μM, JAK3 protein 0.04 ng/μL; read-out: JAK 3 activity.

Where only a bound is given, the exact number is not on record here.

Chain of JAK2 (O60674 whole entry): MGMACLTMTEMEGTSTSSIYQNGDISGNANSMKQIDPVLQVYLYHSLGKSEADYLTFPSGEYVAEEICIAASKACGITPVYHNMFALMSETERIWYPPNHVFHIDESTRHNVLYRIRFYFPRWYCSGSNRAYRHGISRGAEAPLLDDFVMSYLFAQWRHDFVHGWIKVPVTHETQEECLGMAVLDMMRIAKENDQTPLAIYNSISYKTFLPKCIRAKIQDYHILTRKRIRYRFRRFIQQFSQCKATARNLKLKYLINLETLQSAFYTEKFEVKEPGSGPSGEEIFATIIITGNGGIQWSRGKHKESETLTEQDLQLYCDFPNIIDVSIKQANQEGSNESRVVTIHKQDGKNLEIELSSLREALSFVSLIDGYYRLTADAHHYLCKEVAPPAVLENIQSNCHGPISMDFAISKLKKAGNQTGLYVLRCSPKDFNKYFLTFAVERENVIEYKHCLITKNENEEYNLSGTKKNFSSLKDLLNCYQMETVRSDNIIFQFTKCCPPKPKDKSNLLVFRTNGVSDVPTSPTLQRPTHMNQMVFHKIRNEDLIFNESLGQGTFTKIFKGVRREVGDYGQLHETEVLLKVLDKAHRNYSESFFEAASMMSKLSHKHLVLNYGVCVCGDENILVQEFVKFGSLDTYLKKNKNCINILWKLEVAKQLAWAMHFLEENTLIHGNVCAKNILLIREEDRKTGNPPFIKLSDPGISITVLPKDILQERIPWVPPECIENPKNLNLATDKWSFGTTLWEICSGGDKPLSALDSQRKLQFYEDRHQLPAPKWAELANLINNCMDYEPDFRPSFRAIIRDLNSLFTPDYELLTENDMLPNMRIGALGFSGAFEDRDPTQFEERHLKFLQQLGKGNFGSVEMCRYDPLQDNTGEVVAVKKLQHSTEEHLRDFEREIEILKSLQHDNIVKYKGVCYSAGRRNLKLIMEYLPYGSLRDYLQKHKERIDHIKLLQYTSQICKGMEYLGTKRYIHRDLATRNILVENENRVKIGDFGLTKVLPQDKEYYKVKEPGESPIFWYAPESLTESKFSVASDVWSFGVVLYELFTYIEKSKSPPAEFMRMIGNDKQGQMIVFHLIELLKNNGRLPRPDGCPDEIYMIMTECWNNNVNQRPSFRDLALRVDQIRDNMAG
Chain of JAK1 (P23458 whole entry): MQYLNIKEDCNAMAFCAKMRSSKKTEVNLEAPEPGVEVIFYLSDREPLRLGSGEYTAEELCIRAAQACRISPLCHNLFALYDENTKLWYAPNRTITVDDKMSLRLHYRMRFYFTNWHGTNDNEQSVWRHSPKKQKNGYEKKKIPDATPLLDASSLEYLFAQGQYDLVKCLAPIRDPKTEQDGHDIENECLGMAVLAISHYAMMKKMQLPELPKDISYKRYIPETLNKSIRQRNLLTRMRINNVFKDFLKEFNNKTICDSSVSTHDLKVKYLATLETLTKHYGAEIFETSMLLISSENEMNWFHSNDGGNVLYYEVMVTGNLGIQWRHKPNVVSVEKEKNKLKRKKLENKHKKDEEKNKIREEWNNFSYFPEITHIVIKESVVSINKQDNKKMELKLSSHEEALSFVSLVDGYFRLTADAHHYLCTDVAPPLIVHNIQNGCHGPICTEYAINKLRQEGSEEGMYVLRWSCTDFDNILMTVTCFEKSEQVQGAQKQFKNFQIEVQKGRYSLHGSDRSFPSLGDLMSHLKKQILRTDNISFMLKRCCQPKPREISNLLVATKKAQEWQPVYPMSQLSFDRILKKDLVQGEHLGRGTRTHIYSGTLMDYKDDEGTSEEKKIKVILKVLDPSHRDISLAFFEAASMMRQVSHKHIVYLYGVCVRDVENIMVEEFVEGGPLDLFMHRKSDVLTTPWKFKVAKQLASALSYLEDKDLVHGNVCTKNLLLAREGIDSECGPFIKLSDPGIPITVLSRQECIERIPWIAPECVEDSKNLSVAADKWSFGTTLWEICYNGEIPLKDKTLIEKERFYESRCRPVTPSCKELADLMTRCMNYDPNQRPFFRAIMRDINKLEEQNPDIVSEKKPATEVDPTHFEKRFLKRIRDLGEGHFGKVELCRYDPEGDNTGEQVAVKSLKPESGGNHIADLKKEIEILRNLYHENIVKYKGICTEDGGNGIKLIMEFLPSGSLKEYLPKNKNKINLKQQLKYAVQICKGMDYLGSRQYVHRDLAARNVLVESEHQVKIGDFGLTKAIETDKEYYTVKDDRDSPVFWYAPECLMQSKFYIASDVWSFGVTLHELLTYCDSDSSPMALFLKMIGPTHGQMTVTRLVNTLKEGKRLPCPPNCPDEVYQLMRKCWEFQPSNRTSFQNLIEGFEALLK
Chain of TYK2 (P29597 whole entry): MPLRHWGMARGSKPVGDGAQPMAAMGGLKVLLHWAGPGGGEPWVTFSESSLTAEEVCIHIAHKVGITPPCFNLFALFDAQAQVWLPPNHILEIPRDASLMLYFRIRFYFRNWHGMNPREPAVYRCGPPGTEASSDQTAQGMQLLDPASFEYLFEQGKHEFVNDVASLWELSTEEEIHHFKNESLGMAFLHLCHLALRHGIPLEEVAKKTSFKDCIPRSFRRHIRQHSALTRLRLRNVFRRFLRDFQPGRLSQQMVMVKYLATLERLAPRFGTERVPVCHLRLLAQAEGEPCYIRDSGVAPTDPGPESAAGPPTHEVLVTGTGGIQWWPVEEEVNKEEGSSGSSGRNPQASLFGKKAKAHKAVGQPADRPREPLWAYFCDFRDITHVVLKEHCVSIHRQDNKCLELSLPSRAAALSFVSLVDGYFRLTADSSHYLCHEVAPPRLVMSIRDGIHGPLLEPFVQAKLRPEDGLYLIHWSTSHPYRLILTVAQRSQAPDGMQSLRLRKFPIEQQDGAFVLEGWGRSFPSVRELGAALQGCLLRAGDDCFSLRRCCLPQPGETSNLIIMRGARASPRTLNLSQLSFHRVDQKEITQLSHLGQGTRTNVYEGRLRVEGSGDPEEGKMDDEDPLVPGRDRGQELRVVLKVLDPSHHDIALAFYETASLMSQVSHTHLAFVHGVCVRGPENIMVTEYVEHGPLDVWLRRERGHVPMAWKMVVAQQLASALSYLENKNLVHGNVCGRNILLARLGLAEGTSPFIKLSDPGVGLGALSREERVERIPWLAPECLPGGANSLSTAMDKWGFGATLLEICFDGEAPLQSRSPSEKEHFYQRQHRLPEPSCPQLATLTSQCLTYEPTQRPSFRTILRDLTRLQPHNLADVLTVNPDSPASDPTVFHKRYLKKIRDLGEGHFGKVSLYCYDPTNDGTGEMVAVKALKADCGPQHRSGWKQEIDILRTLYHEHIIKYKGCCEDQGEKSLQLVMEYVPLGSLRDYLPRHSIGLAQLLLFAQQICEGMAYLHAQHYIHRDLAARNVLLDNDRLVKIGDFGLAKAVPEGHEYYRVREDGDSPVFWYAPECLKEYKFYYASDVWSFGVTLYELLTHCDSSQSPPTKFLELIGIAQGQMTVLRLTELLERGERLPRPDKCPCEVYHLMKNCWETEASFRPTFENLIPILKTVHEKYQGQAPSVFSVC

As for `O=C1NCCCCOCc2cc(ccc2OCC2CCCOC2)Nc2nccc(n2)-c2ccc1cc2[N+](=O)[O-]` (stereo not drawn) [Example 146, 1^2-nitro-4^4-((tetrahydro-2H-pyran-3-yl)methoxy)-6-oxa-3,11-diaza-2(4,2)-pyrimidina-1(1,4),4(1,3)-dibenzenacyclododecaphan-12-one], the IC50 in experiment [1] is 1 to 10 µM; in experiment [2], more than 10 µM; in experiment [3], more than 10 µM; in experiment [4], 0.101 to 1 µM.

Take `Nc1cc2ccc1-c1ccnc(n1)Nc1ccc(OCC3CCCOC3)c(c1)COCCCCNC2=O` (stereo not drawn) [Example 147]: the IC50 in experiment [1] was 0.101 to 1 µM; in experiment [2] it was 0.101 to 1 µM; in experiment [3], 1 to 10 µM; in experiment [4], less than 0.01 µM.

As for `Nc1cc2ccc1-c1ccnc(n1)Nc1ccc(OCc3cccc4c3OCC4)c(c1)COCCCCNC2=O` [Example 148, 1^2-amino-4^4-((2,3-dihydrobenzofu-ran-7-yl)methoxy)-6-oxa-3,11-dia-za-2(4,2)-pyrimidina-1(1,4),4(1,3)-dibenzenacyclododecaphan-12-one], the IC50 in experiment [1] is 0.101 to 1 µM; in experiment [2] it was 1 to 10 µM; in experiment [3], more than 10 µM; in experiment [4], less than 0.01 µM.

Turning to `CC1CCNC(=O)c2ccc(c(N)c2)-c2ccnc(n2)Nc2ccc(OCC3CCCCC3)c(c2)COC1` (stereo not drawn) [Example 149, 1^2-amino-4^4-(cyclohexylmethoxy)-8-methyl-6-oxa-3,11-diaza-2(4,2)-pyrimidina-1(1,4),4(1,3)-dibenzena-cyclododecaphan-12-one], the IC50 in experiment [1] is 1 to 10 µM; in experiment [2], 1 to 10 µM; in experiment [3], more than 10 µM; in experiment [4] it was 0.011 to 0.1 µM.

Consider `O=C1NCCCCOCc2cc(ccc2OCc2cccc3c2CCO3)Nc2nccc(n2)-c2ccc1cc2[N+](=O)[O-]` [Example 150, 4^4-((2,3-dihydroxybenzofuran-4-yl)methoxy)-1^2-nitro-6-oxa-3,11-diaza-2(4,2)-pyrimidina-1(1,4),4(1,3)-dibenzenacyclododecaphan-12-one], for which the IC50 was more than 10 µM in experiment [1], more than 10 µM in experiment [2], more than 10 µM in experiment [3] and 1 to 10 µM in experiment [4].

For `Nc1cc2ccc1-c1ccnc(n1)Nc1ccc(OCc3cccc4c3CCO4)c(c1)COCCCCNC2=O` [Example 151, 1^2-amino-4^4-((2,3-dihydrobenzofu-ran-4-yl)methoxy)-6-oxa-3,11-dia-za-2(4,2)-pyrimidina-1(14),4(1,3)-dibenzenacyclododecaphan-12-one], the IC50 in experiment [1] lay within 0.101 to 1 µM; in experiment [2] it was 1 to 10 µM; in experiment [3], 1 to 10 µM; in experiment [4], 0.011 to 0.1 µM.

As for `O=C1NCCCCOCc2cc(ccc2OCc2ccccc2F)Nc2nccc(n2)-c2ccc1cc2[N+](=O)[O-]` [Example 152, 4^4-((2-fluorobenzyl)oxy)-1^2-nitro-6-oxa-3,11-diaza-2(4,2)-pyrimidina-1(1,4),4(1,3)-dibenzenacyclodo-decaphan-12-one], the IC50 in experiment [1] is 1 to 10 µM; in experiment [2], 1 to 10 µM; in experiment [3] it was more than 10 µM; in experiment [4], 0.101 to 1 µM.

As to `Nc1cc2ccc1-c1ccnc(n1)Nc1ccc(OCc3ccccc3F)c(c1)COCCCCNC2=O` [Example 153, 1^2-amino-4^4-((2-fluorobenzyl)oxy)-6-oxa-3,11-diaza-2(4,2)-pyrimidi-na-1(1,4),4(1,3)-dibenzenacyclo-dodecaphan-12-one], the IC50 in experiment [1] was 0.101 to 1 µM; in experiment [2], 1 to 10 µM; in experiment [3], more than 10 µM; in experiment [4], less than 0.01 µM.

`O=C1NCCCCOCc2cc(ccc2OCC2Cc3ccccc3O2)Nc2nccc(n2)-c2ccc1cc2[N+](=O)[O-]` (stereo not drawn) [Example 154, 4^4-((2,3-dihydroxybenzofuran-2-yl)methoxy)-1^2-nitro-6-oxa-3,11-diaza-2(4,2)-pyrimidina-1(1,4),4(1,3)-dibenzenacyclododecaphan-12-one]: the IC50 in experiment [1] is 1 to 10 µM; in experiment [2], 1 to 10 µM; in experiment [3], more than 10 µM; in experiment [4], 0.101 to 1 µM.

Values taken from patent US20230203059A1, “MACROCYCLIC JAK INHIBITOR AND USES THEREOF” (Biopolar Hongye (Guangdong) Pharmaceutical Co. Ltd., priority 2020, published 2023).
